According to patent EP4321514B1, “COMPOUND HAVING ALK INHIBITORY ACTIVITY, PREPARATION METHOD THEREFOR AND USE THEREOF” (CGeneTech (Suzhou, China) Co., Ltd., priority 2021, dated 2022):

How the values were obtained:
ALK kinase = target: T1, ALK kinase (Homo sapiens, UniProt Q9UM73); experiment: ALK kinase inhibition test; format: biochemical; settings: 0.4 ng/well ALK kinase, 5 µM ATP, fluorescence 665 nm/615 nm
T1 construct: purchased Thermo Scientific
Description: The inhibitory activity of the compound in the present application on ALK kinase will be determined through in vitro tests, which can be represented by IC50 value.
4 µL of the diluted solution of the test compound and 2 µL of 0.4 ng/well ALK kinase solution (Thermo Scientific) were added into reaction wells in turn, incubated for 10 min at room temperature, then 4 µL of 0.7 µM biotin-labeled tyrosine kinase substrate and 5 µM ATP solution were added to start the kinase reaction.
Software Graphpad Prism 6 was used to fit an IC50 curve and calculate an IC50 value.

[1] = test system: human anaplastic large cell lymphoma cell Karpas 299; experiment: ALK gene fusion cell proliferation inhibition test (CCK-8); format: cell-based; settings: 72 hours incubation, CCK-8, absorbance at 450 nm
Description: The 96-well culture plate was placed in a 5 % carbon dioxide incubator at 37 °C to be cultured overnight. A test compound was formulated into a 10 mM storage solution with DMSO, and the 10mM storage solution was gradually diluted with DMSO at a dilution ration of 1:4 to obtain 9 concentration gradients of solutions of the test compound. The test compound was diluted with culture medium to 5 times the set final concentration of corresponding action, and the diluted solution of the test compound was added at 25 µL/well to corresponding cell wells according to the set compound layout, and then incubated in a 5 % carbon dioxide incubator at 37 °C for 72 hours. After 72 hours, 10 µL of CCK-8 was added into a cell culture medium, and the culture solution was sucked from adherent cells, then a freshly prepared CCK-8 detection solution was added and the cells were incubated in a 37 °C incubator for 1-4 hours. The absorbance at 450 nm wavelength on the SpectraMax i3X Microplate Reader was measured after gently shaking, with the absorbance at 650 nm as a reference.

T1 sequence (Q9UM73 19-1620): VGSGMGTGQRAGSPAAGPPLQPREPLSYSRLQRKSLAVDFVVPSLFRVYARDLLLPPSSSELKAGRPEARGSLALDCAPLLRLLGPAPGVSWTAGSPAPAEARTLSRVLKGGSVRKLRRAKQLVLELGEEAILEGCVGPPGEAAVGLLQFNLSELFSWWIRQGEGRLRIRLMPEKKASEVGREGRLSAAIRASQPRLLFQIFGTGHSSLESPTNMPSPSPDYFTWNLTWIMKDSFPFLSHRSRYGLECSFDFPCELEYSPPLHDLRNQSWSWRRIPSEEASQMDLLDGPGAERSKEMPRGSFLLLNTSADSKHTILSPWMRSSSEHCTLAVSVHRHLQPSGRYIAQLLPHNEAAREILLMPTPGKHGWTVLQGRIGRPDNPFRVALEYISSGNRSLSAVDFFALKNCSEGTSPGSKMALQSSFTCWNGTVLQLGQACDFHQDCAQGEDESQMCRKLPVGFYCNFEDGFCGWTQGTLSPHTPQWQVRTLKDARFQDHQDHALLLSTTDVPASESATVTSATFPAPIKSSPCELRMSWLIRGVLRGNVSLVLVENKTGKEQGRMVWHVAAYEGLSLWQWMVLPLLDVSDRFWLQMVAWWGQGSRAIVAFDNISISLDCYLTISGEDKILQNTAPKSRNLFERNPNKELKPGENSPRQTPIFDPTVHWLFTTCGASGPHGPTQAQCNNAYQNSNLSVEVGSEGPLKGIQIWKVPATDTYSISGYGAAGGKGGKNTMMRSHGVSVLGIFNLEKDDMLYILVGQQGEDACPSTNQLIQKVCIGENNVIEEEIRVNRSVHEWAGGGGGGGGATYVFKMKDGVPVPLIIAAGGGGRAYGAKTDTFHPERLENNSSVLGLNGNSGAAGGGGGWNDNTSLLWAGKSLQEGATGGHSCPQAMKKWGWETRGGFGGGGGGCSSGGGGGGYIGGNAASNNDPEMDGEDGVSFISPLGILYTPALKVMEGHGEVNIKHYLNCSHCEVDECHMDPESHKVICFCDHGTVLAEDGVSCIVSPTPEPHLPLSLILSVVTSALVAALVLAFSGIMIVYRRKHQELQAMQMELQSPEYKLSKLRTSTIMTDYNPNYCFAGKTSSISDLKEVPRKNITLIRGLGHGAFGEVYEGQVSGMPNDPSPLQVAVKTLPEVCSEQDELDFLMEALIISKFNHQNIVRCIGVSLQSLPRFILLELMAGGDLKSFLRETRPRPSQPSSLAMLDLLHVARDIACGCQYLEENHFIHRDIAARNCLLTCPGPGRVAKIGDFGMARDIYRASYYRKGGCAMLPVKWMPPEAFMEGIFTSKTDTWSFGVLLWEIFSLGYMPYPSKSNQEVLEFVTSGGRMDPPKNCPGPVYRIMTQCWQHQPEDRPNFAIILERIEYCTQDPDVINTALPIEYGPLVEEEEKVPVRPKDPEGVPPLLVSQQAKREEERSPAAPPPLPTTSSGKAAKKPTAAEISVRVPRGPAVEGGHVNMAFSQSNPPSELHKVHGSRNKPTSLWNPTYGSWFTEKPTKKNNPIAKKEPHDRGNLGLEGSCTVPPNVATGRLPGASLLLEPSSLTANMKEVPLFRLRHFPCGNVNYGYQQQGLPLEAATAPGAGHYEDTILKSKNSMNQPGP

IC50 (ALK kinase) [nM]	IC50 [1] [nM]	Compound
5.76	7.52	C#Cc1ccc2c3c([nH]c2c1)C(C)(C)c1cc(N2CCN(C)CC2)c(C#N)cc1C3=O [Example E13, 3-ethynyl-6,6-dimethyl-8-(4-methylpiperazin-1-yl)-11-oxo-6,11-dihydro-5H-benzo[b]carbazole-9-carbonitrile]
6.51	11.4	C#Cc1ccc2c3c([nH]c2c1)C(C)(C)c1cc(N2CCC(N4CCCC4)CC2)c(C#N)cc1C3=O [Example E14, 3-ethynyl-6,6-dimethyl-11-oxo-8-(4-(pyrrolidin-1-yl)piperidin-1-yl)-6,11-dihydro-5H-benzo[b]car bazole-9-carbonitrile]
4.62	8.29	C#Cc1ccc2c3c([nH]c2c1)C(C)(C)c1cc(N2CCC(N(C)C)CC2)c(C#N)cc1C3=O [Example E15, 8-(4-(dimethylamino)piperidin-1-yl)-3-ethynyl-6,6-dimethyl-11-oxo-6,11-dihydro-5H-benzo[b]car bazole-9-carbonitrile]
5.7	3.27	C#Cc1ccc2c3c([nH]c2c1)C(C)(C)c1cc(N2CCC(N4CCN(C)CC4)CC2)c(C#N)cc1C3=O [Example E16, 3-ethynyl-6,6-dimethyl-8-(4-(4-methylpiperazin-1-yl)piperidin-1-yl)-11-oxo-6,11-dihydro-5H-ben zo[b]carbazole-9-carbonitrile]
49	33.2	C#Cc1ccc2c3c([nH]c2c1)C(C)(C)c1cc(N2CCN(C4CC4)CC2)c(C#N)cc1C3=O [Example E17, 8-(4-cyclopropylpiperazin-1-yl)-3-ethynyl-6,6-dimethyl-11-oxo-6,11-dihydro-5H-benzo[b]carbazole-9-carbonitrile]
10.3	1.71	C#Cc1ccc2c3c([nH]c2c1)C(C)(C)c1cc(N2CCC(N4CCN(C5CC5)CC4)CC2)c(C#N)cc1C3=O [Example E18, 8-(4-(4-cyclopropylpiperazin-1-yl)piperidin-1-yl)-3-ethynyl-6,6-dimethyl-11-oxo-6,11-dihydro-5 H-benzo[b]carbazole-9-carbonitrile]
3.73	11.7	C#Cc1ccc2c3c([nH]c2c1)C(C)(C)c1cc(N2CCN(C)CC2)c(Cl)cc1C3=O [Example E19, 9-chloro-3-ethynyl-6,6-dimethyl-8-(4-methylpiperazin-1-yl)-5,6-dihydro-11H-benzo[b]carbazol-1 1-one]
40.1	55.9	C#Cc1ccc2c3c([nH]c2c1)C(C)(C)c1cc(N2CCN(C4CC4)CC2)c(Cl)cc1C3=O [Example E20, 9-chloro-8-(4-cyclopropylpiperazin-1-yl)-3-ethynyl-6,6-dimethyl-5,6-dihydro-11H-benzo[b]carbazol-11-one]
12.7	10.4	C#Cc1ccc2c3c([nH]c2c1)C(C)(C)c1cc(N2CCC(N(C)C)CC2)c(Cl)cc1C3=O [Example E21, 9-chloro-8-(4-(dimethylamino)piperidin-1-yl)-3-ethynyl-6,6-dimethyl-5,6-dihydro-11H-benzo[b]c arbazol-11-one]
13.5	4.67	C#Cc1ccc2c3c([nH]c2c1)C(C)(C)c1cc(N2CCC(N4CCN(C)CC4)CC2)c(Cl)cc1C3=O [Example E22, 9-chloro-3-ethynyl-6,6-dimethyl-8-(4-(4-methylpiperazin-1-yl)piperidin-1-yl)-5,6-dihydro-11H-be nzo[b]carbazol-11-one]
2.61	22.2	C#Cc1ccc2c3c([nH]c2c1)C(C)(C)c1cc(N2CCC(N4CCOCC4)CC2)c(Cl)cc1C3=O [Example E23, 9-chloro-3-ethynyl-6,6-dimethyl-8-(4-morpholinopiperidin-1-yl)-5,6-dihydro-11H-benzo[b]carbazol-11-one]
3.29	18.2	C#Cc1ccc2c3c([nH]c2c1)C(C)(C)c1cc(N2CCNCC2)c(Cl)cc1C3=O [Example E24, 9-chloro-3-ethynyl-6,6-dimethyl-8-(piperazin-1-yl)-5,6-dihydro-11H-benzo[b]carbazol-11-one]
49.9	53	C#Cc1ccc2c3c([nH]c2c1)C(C)(C)c1cc(N2CCC(N4CCC4)CC2)c(Cl)cc1C3=O [Example E25, 8-(4-(azetidin-1-yl)piperidin-1-yl)-9-chloro-3-ethynyl-6,6-dimethyl-5,6-dihydro-11H-benzo[b]car bazol-11-one]
38.4	20.6	CCc1cc2c(cc1N1CCC(N3CCOCC3)CC1)C(C)(C)c1[nH]c3cc(C#CC4CC4)ccc3c1C2=O [Example E26, 3-(cyclopropylethynyl)-9-ethyl-6,6-dimethyl-8-(4-morpholinopiperidin-1-yl)-5,6-dihydro-11H-be nzo[b]carbazol-11-one]
10.2	110	CC#Cc1ccc2c3c([nH]c2c1)C(C)(C)c1cc(N2CCC(N4CCOCC4)CC2)c(CC)cc1C3=O [Example E27, 9-ethyl-6,6-dimethyl-8-(4-morpholinopiperidin-1-yl)-3-(prop-1-yn-1-yl)-5,6-dihydro-11H-benzo[b]carbazol-11-one]
2.62	5	C#Cc1ccc2c3c([nH]c2c1)C(C)(C)c1cc(N2CCC(NC)CC2)c(C#N)cc1C3=O [Example E28, 3-ethynyl-6,6-dimethyl-8-(4-(methylamino)piperidin-1-yl)-11-oxo-6,11-dihydro-5H-benzo[b]carb azole-9-carbonitrile]
